Results from ChEMBL document CHEMBL1146013, “Amino substituted analogs of 1-phenyl-3-phenylimino-2-indolones with potent galanin Gal3 receptor binding affinity and improved solubility” (Bioorg Med Chem Lett, 2006).
In brackets after ≈: the same amount, converted by molar mass.

Experiments:
[1] = target: T1, Galanin receptor type 3 (Homo sapiens, UniProt O60755); experiment: Displacement of [125I]galanin from human galanin Gal3 receptor
T1 sequence (O60755 whole entry): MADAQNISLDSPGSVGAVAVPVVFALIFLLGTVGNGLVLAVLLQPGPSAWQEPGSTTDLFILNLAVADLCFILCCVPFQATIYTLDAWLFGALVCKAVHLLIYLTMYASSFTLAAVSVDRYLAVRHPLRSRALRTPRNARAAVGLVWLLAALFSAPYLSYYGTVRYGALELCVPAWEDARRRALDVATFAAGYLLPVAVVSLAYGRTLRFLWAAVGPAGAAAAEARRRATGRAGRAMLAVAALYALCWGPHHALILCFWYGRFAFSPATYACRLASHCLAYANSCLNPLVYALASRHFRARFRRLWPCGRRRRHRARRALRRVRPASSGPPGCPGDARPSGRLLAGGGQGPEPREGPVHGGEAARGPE

[2] = Aqueous solubility at pH 7.4; type: physicochemical
[3] = target: D(1B) dopamine receptor (Homo sapiens, UniProt P21918); experiment: Binding affinity to human dopamine D5 receptor
[4] = target: T2, Alpha-1A adrenergic receptor (Homo sapiens, UniProt P35348); experiment: Binding affinity to human adrenergic alpha-1A receptor
T2 sequence (P35348 whole entry): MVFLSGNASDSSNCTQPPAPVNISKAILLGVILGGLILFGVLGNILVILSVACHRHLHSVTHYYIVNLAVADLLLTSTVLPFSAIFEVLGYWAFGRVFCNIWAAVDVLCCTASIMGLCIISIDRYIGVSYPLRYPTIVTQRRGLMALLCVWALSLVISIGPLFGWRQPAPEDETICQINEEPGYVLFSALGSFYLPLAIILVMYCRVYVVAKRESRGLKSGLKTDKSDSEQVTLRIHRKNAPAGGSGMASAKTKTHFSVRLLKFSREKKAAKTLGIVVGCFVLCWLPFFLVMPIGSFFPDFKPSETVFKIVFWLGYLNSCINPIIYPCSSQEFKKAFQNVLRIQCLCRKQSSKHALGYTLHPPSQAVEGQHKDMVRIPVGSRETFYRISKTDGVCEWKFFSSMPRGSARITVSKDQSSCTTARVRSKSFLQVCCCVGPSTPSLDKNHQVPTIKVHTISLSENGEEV

Sequence of D(1B) dopamine receptor (P21918 whole entry): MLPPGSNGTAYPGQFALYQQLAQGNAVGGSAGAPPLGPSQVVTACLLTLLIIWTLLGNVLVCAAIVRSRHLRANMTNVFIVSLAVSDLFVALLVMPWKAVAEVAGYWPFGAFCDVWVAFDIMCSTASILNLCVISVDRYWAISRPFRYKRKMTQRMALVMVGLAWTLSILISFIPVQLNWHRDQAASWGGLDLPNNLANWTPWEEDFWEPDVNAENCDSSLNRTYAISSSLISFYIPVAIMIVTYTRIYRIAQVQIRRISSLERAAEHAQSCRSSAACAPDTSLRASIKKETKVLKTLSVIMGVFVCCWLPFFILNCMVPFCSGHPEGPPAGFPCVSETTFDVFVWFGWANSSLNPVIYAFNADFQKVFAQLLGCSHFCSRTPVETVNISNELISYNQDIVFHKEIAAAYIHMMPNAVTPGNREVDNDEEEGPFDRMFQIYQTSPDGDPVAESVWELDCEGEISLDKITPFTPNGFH

With CN(C)CCOc1ccc(N2C(=O)/C(=N/c3cccc(C(F)(F)F)c3)c3ccccc32)cc1 as the compound, how does the Ki [1] read?
The Ki was 0.089 µM.

For CCN(CC)CCCCOc1ccc(N2C(=O)/C(=N/c3cccc(C(F)(F)F)c3)c3ccccc32)cc1, which Ki [1] is on record?
Its Ki is 0.07 µM.

For O=C1/C(=N/c2cccc(C(F)(F)F)c2)c2ccccc2N1c1ccccc1OCCN1CCCC1, which Ki [1] is on record?
The Ki was 0.79 µM.

With CCN(CC)CCCOc1ccc(N2C(=O)/C(=N/c3cccc(C(F)(F)F)c3)c3ccccc32)cc1 as the compound, how does the Ki [1] read?
The Ki was 0.034 µM.

And the solubility [2]?
The solubility was 0.035 mg/mL (≈ 70.6 µM).

With CCN(CC)C[C@H](O)COc1cccc(N2C(=O)/C(=N/c3cccc(C(F)(F)F)c3)c3ccccc32)c1 as the compound, how does the Ki [1] read?
Its Ki is 0.027 µM.

And the solubility [2]?
Its solubility is 0.606 mg/mL (≈ 1180 µM).

Which Ki [3] does the source give for O=C1/C(=N/c2cccc(C(F)(F)F)c2)c2ccccc2N1c1cccc(OCCN2CCCC2)c1 here?
Its Ki is 0.939 µM.

And the Ki [1]?
Its Ki is 0.005 µM.

What about the Ki [4] of the same compound?
The Ki was 0.078 µM.

And the solubility [2]?
The solubility was 0.048 mg/mL (≈ 100 µM).

For CCN(CC)C[C@@H](O)COc1cccc(N2C(=O)/C(=N/c3cccc(C(F)(F)F)c3)c3ccccc32)c1, which Ki [1] is on record?
The Ki was 0.29 µM.

Which Ki [1] does the source give for CCN(CC)COc1cccc(N2C(=O)/C(=N/c3cccc(C(F)(F)F)c3)c3ccccc32)c1 here?
Its Ki is 0.038 µM.

What about the solubility [2] of the same compound?
Its solubility is 0.048 mg/mL (≈ 103 µM).

With CCN(CC)CCCOc1cccc(N2C(=O)/C(=N/c3cccc(C(F)(F)F)c3)c3ccccc32)c1 as the compound, how does the Ki [3] read?
The Ki was 0.411 µM.

What about the Ki [1] of the same compound?
Its Ki is 0.021 µM.

What about the solubility [2] of the same compound?
Its solubility is 0.044 mg/mL (≈ 88.8 µM).

With O=C1/C(=N/c2cccc(C(F)(F)F)c2)c2ccccc2N1c1cccc(OCCCN2CCCC2)c1 as the compound, how does the Ki [1] read?
Its Ki is 0.049 µM.

With CCN(CC)CCOc1cccc(N2C(=O)/C(=N/c3cccc(C(F)(F)F)c3)c3ccccc32)c1 as the compound, how does the Ki [1] read?
The Ki was 0.087 µM.

With CN(C)CCOc1cccc(N2C(=O)/C(=N/c3cccc(C(F)(F)F)c3)c3ccccc32)c1 as the compound, how does the Ki [1] read?
Its Ki is 0.026 µM.

For CCN(CC)CCCCOc1cccc(N2C(=O)/C(=N/c3cccc(C(F)(F)F)c3)c3ccccc32)c1, which Ki [1] is on record?
The Ki was 0.045 µM.

And the solubility [2]?
The solubility was 0.005 mg/mL (≈ 9.81 µM).

For CCN(CC)CCOc1ccccc1N1C(=O)/C(=N/c2cccc(C(F)(F)F)c2)c2ccccc21, which Ki [1] is on record?
Its Ki is 1 µM.

Which results are given for O=C1/C(=N/c2cccc(C(F)(F)F)c2)c2ccccc2N1c1ccccc1?
Ki [1]: 0.017 µM; solubility [2]: < 0.001 mg/mL

With CCN(CC)CC(O)COc1cccc(N2C(=O)/C(=N/c3cccc(C(F)(F)F)c3)c3ccccc32)c1 (racemic) as the compound, how does the Ki [1] read?
The Ki was 0.015 µM.

With CCN(CC)CCOc1ccc(N2C(=O)/C(=N/c3cccc(C(F)(F)F)c3)c3ccccc32)cc1 as the compound, how does the Ki [1] read?
The Ki was 0.078 µM.

For CN(C)CCCOc1cccc(N2C(=O)/C(=N/c3cccc(C(F)(F)F)c3)c3ccccc32)c1, which Ki [1] is on record?
The Ki was 0.029 µM.

What does the source list for O=C1/C(=N/c2cccc(C(F)(F)F)c2)c2ccccc2N1c1cccc(OCCN2CCCCC2)c1?
Ki [1]: 0.008 µM; solubility [2]: 0.007 mg/mL (≈ 14.2 µM)
